What was measured:
[1] = In vivo pharmacokinetic study in dogs, oral dose of ARI-158; set-up: species or system male beagle dogs; conditions: for Plasma Concentration / AUC(0-inf) / AUC(0-t) / Cmax / Tmax / half-life / concentration at 0.083 h / concentration at 0.25 h / concentration at 0.5 h / concentration at 1 h / concentration at 2 h / concentration at 4 h / concentration at 6 h / concentration at 8 h: dogs, 10 mg/kg oral dose of ARI-158; for AUC(0-inf) / AUC(0-t) / Cmax / Tmax / half-life / concentration at 0.083 h / concentration at 0.25 h / concentration at 0.5 h / concentration at 1 h / concentration at 2 h / concentration at 4 h / concentration at 6 h / concentration at 8 h: male, beagle, dog, plasma, po, 10 mg/kg
Method: This example describes pharmacokinetic (PK) studies of ARI-158 and ARI-160 in dogs and rats, respectively. In the present studies, the test compounds were given to groups of male beagle dogs and rats (N=3 in each group) intravenously (IV) at 2 mg/kg or orally (PO) at 10 mg/kg. IV doses were formulated in DMSO, while PO doses were formulated in a 50/50 mixture of PEG400 and Tween 80. Blood samples were collected at pre-dose and over a period of 24 hours post-dose. Plasma concentrations of the indolo-phosphoramidate compounds were determined by HPLC.

[2] = tested on: EMT-6 cancer cells; assay: Anti-tumor activity in EMT-6 syngeneic mouse tumor model; type: in vivo; conditions: 80 mpk
Method: This example describes in vivo studies that evaluated the anti-cancer efficacy of ARI-158 and ARI-160 in syngeneic mouse tumor models. Mice implanted subcutaneously with EMT-6 cancer cells were treated with ARI-158 and ARI-160, or vehicle controls, as described below.
A monolayer culture of tumor cells was maintained in vitro in DMEM or RPMI1640 medium supplemented with 10% fetal bovine serum at 37° C. in an atmosphere of 5% CO2. Cells in exponential growth phase were harvested and quantitated by cell counter before tumor inoculation.
EMT-6 syngeneic mouse tumor models were generated by inoculating female BALB/C 6 mice with EMT-6 cancer cells at their right lower flank.
Each mouse was inoculated subcutaneously with tumor cells in 0.1 mL of PBS. Treatments were started when the mean tumor size reached approximately 80-120 mm^3 (around 100 mm^3). The administration of the test compounds and the animal number in each study group are shown in the study design. The date of tumor cell inoculation was denoted as day 0.
ARI-158 and ARI-160 were dissolved in DMSO at the final concentration of 26.7 mg/ml and stored at room temperature.
Randomization of animals was started when the mean tumor size reached approximately 90 mm^3 to form the mouse study groups. The randomization was performed based on “Matched distribution” method using the multi-task method (StudyDirector™ software, version 3.1.399.19)/randomized block design. […]
Tumor volumes were measured twice per week in two dimensions using a caliper, and the volume was expressed in mm^3 using the formula: […]
where V is tumor volume, L is tumor length (the longest tumor dimension) and W is tumor width (the longest tumor dimension perpendicular to L). Dosing as well as tumor and body weight measurements was conducted in a Laminar Flow Cabinet. The body weights and tumor volumes were measured by using StudyDirector™ software (version 3.1.399.19).
Tumor growth inhibition percentage (TGI %) is an indicator for antitumor activity of a drug compound, and expressed as: […]
where T and C are the mean tumor volume (or weight) of the treated and control groups, respectively, on a given day. Statistical analysis of the difference in mean tumor volume (MTV) among the groups was conducted using the data collected on the day when the MTV of the vehicle group reached the humane endpoints, so that TGI could be derived for all or most mice enrolled in the study.

Question: What does the source list for `CCC(=O)c1csc(C(=O)c2cn(P(=O)([O-])[O-])c3cc(F)ccc23)n1.[Na+].[Na+]` [ARI-158]?
Answer: Plasma Concentration ([1]; time 0 h, Dog 10): BLQ; Plasma Concentration ([1]; time 0 h, Dog 11): BLQ; Plasma Concentration ([1]; time 0 h, Dog 12): BLQ; Plasma Concentration ([1]; time 8 h, Dog 11): BLQ; Plasma Concentration ([1]; time 24 h, Dog 10): BLQ; Plasma Concentration ([1]; time 24 h, Dog 11): BLQ; Plasma Concentration ([1]; time 24 h, Dog 12): BLQ; AUC(0-inf) ([1]; Dog 10): 1020 ng·h/mL; AUC(0-t) ([1]; Dog 10): 1020 ng·h/mL; Cmax ([1]; Dog 10): 786 ng/mL; Tmax ([1]; Dog 10): 30 min; half-life ([1]; Dog 10): 82.2 min; AUC(0-inf) ([1]; Dog 11): 677 ng·h/mL; AUC(0-t) ([1]; Dog 11): 675 ng·h/mL; Cmax ([1]; Dog 11): 561 ng/mL; Tmax ([1]; Dog 11): 30 min; half-life ([1]; Dog 11): 39.2 min; AUC(0-inf) ([1]; Dog 12): 676 ng·h/mL; AUC(0-t) ([1]; Dog 12): 669 ng·h/mL; Cmax ([1]; Dog 12): 275 ng/mL; Tmax ([1]; Dog 12): 60 min; half-life ([1]; Dog 12): 61.2 min; AUC(0-inf) ([1]; Mean): 791 ng·h/mL; AUC(0-t) ([1]; Mean): 787 ng·h/mL; Cmax ([1]; Mean): 541 ng/mL; Tmax ([1]; Mean): 40 min; half-life ([1]; Mean): 60.6 min; concentration at 0.083 h ([1]; Dog 10): 153 ng/mL; concentration at 0.083 h ([1]; Dog 11): 149 ng/mL; concentration at 0.083 h ([1]; Dog 12): 14.3 ng/mL; concentration at 0.083 h ([1]; Mean): 105 ng/mL; concentration at 0.25 h ([1]; Dog 10): 438 ng/mL; concentration at 0.25 h ([1]; Dog 11): 414 ng/mL; concentration at 0.25 h ([1]; Dog 12): 87.3 ng/mL; concentration at 0.25 h ([1]; Mean): 313 ng/mL; concentration at 0.5 h ([1]; Dog 10): 786 ng/mL; concentration at 0.5 h ([1]; Dog 11): 561 ng/mL; concentration at 0.5 h ([1]; Dog 12): 178 ng/mL; concentration at 0.5 h ([1]; Mean): 508 ng/mL; concentration at 1 h ([1]; Dog 10): 677 ng/mL; concentration at 1 h ([1]; Dog 11): 311 ng/mL; concentration at 1 h ([1]; Dog 12): 275 ng/mL; concentration at 1 h ([1]; Mean): 421 ng/mL; concentration at 2 h ([1]; Dog 10): 128 ng/mL; concentration at 2 h ([1]; Dog 11): 102 ng/mL; concentration at 2 h ([1]; Dog 12): 158 ng/mL; concentration at 2 h ([1]; Mean): 129 ng/mL; concentration at 4 h ([1]; Dog 10): 11.2 ng/mL; concentration at 4 h ([1]; Dog 11): 14.4 ng/mL; concentration at 4 h ([1]; Dog 12): 69.8 ng/mL; concentration at 4 h ([1]; Mean): 31.8 ng/mL; concentration at 6 h ([1]; Dog 10): 3.28 ng/mL; concentration at 6 h ([1]; Dog 11): 1.47 ng/mL; concentration at 6 h ([1]; Dog 12): 14.1 ng/mL; concentration at 6 h ([1]; Mean): 6.28 ng/mL; concentration at 8 h ([1]; time 8 h, Dog 10): 1.47 ng/mL; concentration at 8 h ([1]; time 8 h, Dog 12): 4.62 ng/mL; concentration at 8 h ([1]; time 8 h, Mean): 3.05 ng/mL; absorption ([1]; oral administration in dogs, compared with ARI-143): absorbed much more efficiently than ARI-143; anti-tumor efficacy (TGI) comparison [2]: better efficacy than ARI-160; TGI ([2]; study day 6): −0.01%; TGI ([2]; study day 10): 2.92%; TGI ([2]; study day 13): −1.75%; TGI ([2]; study day 17): 17.21%; TGI ([2]; study day 20): 38.27%; TGI ([2]; study day 24): 44.41%; TGI ([2]; study day 27): 42.16%; TGI ([2]; study day 31): 39.97%
